Measurements from the supplement of paper PMC8882468.

Experiments:
Assay in all cases: CTG-3D luminescence at 96 h relative to day-0 seeding control (ratio to day 0); higher = more growth / less cytotoxicity; PDxO 3D drug screen (set 2), 96 h, CTG-3D normalised to day-0 seeding control.
[1] = tested on: HCI-003.E2 (organoid from an ER-positive breast cancer xenograft)
[2] = tested on: HCI-027 (organoid from a triple-negative breast cancer xenograft)
[3] = tested on: HCI-005.E2 (organoid from a breast cancer xenograft with a HER2-positive history)
[4] = tested on: HCI-017.E2 (organoid from an ER-positive breast cancer xenograft)
[5] = tested on: HCI-016 (organoid from a triple-negative breast cancer xenograft)
[6] = tested on: HCI-010 (organoid from a breast cancer xenograft)

CCOc1ccn(-c2ccc(F)cc2)c(=O)c1C(=O)Nc1ccc(Oc2ccnc(N)c2Cl)c(F)c1 [ASLAN002]
CTG-3D luminescence at 96 h
Details | 12.5 pM | 0.00025 µM | 0.005 µM | 0.1 µM | 1 µM | 10 µM | 100 µM | 625 fM
[1] | 2.68 | 2.58 | 2.76 | 2.78 | 2.47 | 1.97 | 1.09 | 2.78
[3] | 1.72 | 2.16 | 2.37 | 2.74 | 2.59 | 2.35 | 1.45 | 2.25
[4] | 2.06 | 2.58 | 2.12 | 2.27 | 2.14 | 2.39 | 1.17 | 2.34

CTG-3D luminescence at 96 h
Details | 12.5 pM | 0.00025 µM | 0.005 µM | 0.1 µM | 1 µM | 10 µM | 100 µM | 625 fM
[2], days in culture: 145 | 1.36 | 2.38 | 1.99 | 2.27 | 1.53 | 1.16 | 0.692 | 1.71
[2], days in culture: 158 | 2.07 | 1.82 | 2.16 | 2.7 | 1.65 | 2.11 | 1.35 | 4.78
[2], days in culture: 164 | 1.59 | 1.98 | 3.29 | 1.48 | 1.84 | 1.29 | 0.787 | 1.91
[2], days in culture: 176 | 3.7 | 2.85 | 1.77 | 1.65 | 2.11 | 1.09 | 0.699 | 2.39
[2], days in culture: 186 | 2 | 1.38 | 1.53 | 2.45 | 0.755 | 0.892 | 0.737 | 2
[4], days in culture: 85 | 2.5 | 1.78 | 1.94 | 2.7 | 2.23 | 1.93 | 1.32 | 2.13
[5], days in culture: 305 | 1.62 | 3.6 | 3.65 | 4.35 | 2.71 | 1.97 | 2.68 | 3.43
[5], days in culture: 327 | 0.8 | 1.78 | 1.32 | 1.46 | 1.87 | 1.58 | 1.05 | 1.72
[5], days in culture: 341 | 1.97 | 1.78 | 2.09 | 2.6 | 1.97 | 2 | 0.676 | 2.26
[5], days in culture: 397 | 1.73 | 2.37 | 1.99 | 2.59 | 2.39 | 2.98 | 0.779 | 2.52
[6], days in culture: 79 | 1.78 | 1.68 | 1.94 | 2.05 | 1.8 | 1.55 | 0.742 | 1.97
[6], days in culture: 86 | 2.24 | 2.35 | 2.82 | 2.77 | 2.48 | 2.23 | 0.77 | 2.51
[6], days in culture: 102 | 1.1 | 1.26 | 1.21 | 1.48 | 1.41 | 1.14 | 0.252 | 0.941
[6], days in culture: 164 | 1.62 | 1.61 | 1.72 | 1.74 | 1.66 | 1.3 | 0.248 | 1.36

CO[C@H]1C[C@@H]2CC[C@@H](C)[C@@](O)(O2)C(=O)C(=O)N2CCCC[C@H]2C(=O)O[C@H]([C@H](C)C[C@@H]2CC[C@@H](OCCO)[C@H](OC)C2)CC(=O)[C@H](C)/C=C(\C)[C@@H](O)[C@@H](OC)C(=O)[C@H](C)C[C@H](C)/C=C/C=C/C=C/1C [everolimus]
CTG-3D luminescence at 96 h
Details | 12.5 pM | 0.00025 µM | 0.005 µM | 0.1 µM | 1 µM | 10 µM | 100 µM | 625 fM
[1] | 1.22 | 1.04 | 0.796 | 0.297 | 0.0538 | 0.03 | 0.000105 | 1.67
[3] | 1.05 | 1.43 | 1.45 | 1.18 | 0.769 | 0.653 | -0.000603 | 1.6
[4] | 1.59 | 1.63 | 1.8 | 1.25 | 0.822 | 0.73 | 0.00266 | 1.99

CTG-3D luminescence at 96 h
Details | 12.5 pM | 0.00025 µM | 0.005 µM | 0.1 µM | 1 µM | 10 µM | 100 µM | 625 fM
[2], days in culture: 145 | 1.16 | 1.53 | 1.5 | 1.39 | 1.19 | 0.742 | -0.00159 | 1.87
[2], days in culture: 158 | 1.27 | 1.84 | 2.74 | 2.29 | 2.53 | 0.866 | -0.00155 | 5.49
[2], days in culture: 164 | 2.66 | 1.52 | 1.32 | 1.43 | 0.817 | 0.404 | 0.000466 | 2.04
[2], days in culture: 176 | 2.43 | 2.12 | 1.35 | 1.31 | 1.44 | 0.309 | 0.000718 | 2.75
[2], days in culture: 186 | 1.24 | 1.55 | 2.18 | 1.05 | 0.291 | 0.288 | 0.00707 | 3.1
[4], days in culture: 85 | 2.06 | 1.86 | 1.32 | 0.959 | 0.595 | 0.493 | 0.00146 | 2.29
[5], days in culture: 305 | 1.91 | 2.37 | 1.91 | 2.63 | 1.49 | 1.46 | -0.0112 | 3.94
[5], days in culture: 327 | 0.724 | 1 | 1.4 | 1.68 | 0.673 | 1.5 | -0.00208 | 0.809
[5], days in culture: 341 | 1.86 | 1.39 | 1.69 | 1.34 | 1.18 | 1.47 | -0.00301 | 2.31
[5], days in culture: 397 | 2.02 | 1.53 | 1.5 | 1.31 | 0.567 | 0.757 | -0.000194 | 2.23
[6], days in culture: 79 | 1.18 | 1.21 | 1.18 | 1.28 | 1.13 | 1.12 | -0.00276 | 1.31
[6], days in culture: 86 | 1.76 | 1.9 | 1.53 | 1.19 | 0.809 | 0.648 | -0.000872 | 2.35
[6], days in culture: 102 | 1.16 | 0.848 | 0.691 | 0.497 | 0.337 | 0.158 | -0.000165 | 1.13
[6], days in culture: 164 | 1.53 | 1.42 | 1.25 | 0.906 | 0.778 | 0.581 | 0.000191 | 1.52
